Source: patent US20250113823A1, “Arthropod Control Compositions” (priority 2022, published 2025)
Where two headings read alike, the source gives them in different places.

What was measured:
Ixodes ricinus = experiment: Warm Plate assay, tick repellence; settings: for pest or weed control at 400 µg/mL / pest or weed control at 2000 µg/mL / pest or weed control at 10000 µg/mL: Ixodes ricinus, read-out: Percentage of repellence of ticks Ixodes ricinus on the warm plate
Aedes aegypti [1] = experiment: Warm Body assay, mosquito landings on treated warm body; type: in vivo; settings: for pest or weed control at 16 µg/mL / pest or weed control at 400 µg/mL / pest or weed control at 10000 µg/mL: read-out: Percentage of repellence of mosquitoes Aedes aegypti landing on the warm body; for pest or weed control at 0.04 %: intermediate concentration of 0.04% (Table 3)
Summary of the method: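 Compounds in ethanol (100 μL, various concentrations) were applied to a sandblasted glass dish covering the warm body (28.3 cm^2), with ethanol as control. Landings were counted automatically from 30 non-blood-fed, sugar-fed Aedes aegypti Rockefeller females aged 5–10 days, under 150 lux.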

Anopheles gambiae = experiment: as above; type: in vivo
Protocol: Anopheles gambiae is also a model organism as it is anthropophilic and transmits malaria.
The controlling effect according to the present invention was assessed using an adapted Warm Body assay as defined in Kröber T, Kessler S, Frei J, Bourquin M, Guerin P M. 2010. J Am Mosq Control Assoc. 26: 381-386. In this in-vitro assay the number of mosquito landing on a warm body, simulating an attractive host treated with the tested stimuli, was measured in order to assess the repellence effect.
On the sandblasted glass Petri dish covering the warm body (28.3 cm^2), 100 μL of the compounds diluted at different concentrations in ethanol was applied. The number of mosquito landing on the warm body was counted for each stimulus and pure ethanol (solvent) as control.

Aedes aegypti [2] = experiment: Free flying room assay, spatial repellence with human volunteer; type: in vivo
Source text: The goal of this large-scale test is to assess the propensity of stimulus released in the air to protect a human volunteer by limiting the mosquito presence in a protected space and the number of landing/biting. The protocol used to carry the test is following the guidelines indicated in WHO (2013; ISBN 978 92 4 150502 4).
A group of 50 Aedes aegypti female mosquitoes were introduced in one chamber of 25 m^3 one hour before the test started. The product was applied in the other chamber of 25 m^3 (“treated chamber”) and let evaporate for 30 minutes. The test started when the window separating the two chambers was opened in a tilt-on manner for another 30 minutes. Twenty minutes after the window was opened, a volunteer entered in the “treated chamber” and sat down for 10 minutes, exposing the forearm for the last 3 minutes to determine the probing activity (Protective Efficacy). Then, the connecting window was closed and the number of mosquitoes in each of the chambers was counted (Spatial Repellency). The negative controls were carried out following the same procedure but without the application of the stimulus. Three replicates of each treatment and of the negative control were conducted with three different volunteers.

[3] = Aedes aegypti, 0.016 mg/mL (Table 3)
[4] = Aedes aegypti, 0.4 mg/mL (Table 3)
[5] = Aedes aegypti, 10 mg/mL (Table 3)
[6] = Aedes aegypti, read-out: repellence

COc1ccc(C(C)=O)c(OC)c1 [compound 1557, 2,4-dimethoxyacetophenone]
Percentage of repellence of ticks Ixodes ricinus on the warm plate (Ixodes ricinus; 0.4 mg/mL (Table 10)): 25.0% | Percentage of repellence of ticks Ixodes ricinus on the warm plate (Ixodes ricinus; 2 mg/mL (Table 10)): 69.2% | Percentage of repellence of ticks Ixodes ricinus on the warm plate (Ixodes ricinus; 10 mg/mL (Table 10)): 66.7% | Percentage of repellence of mosquitoes Aedes aegypti landing on the warm body (Aedes aegypti [1]; 0.016 mg/mL (Table 3)): 81% | Percentage of repellence of mosquitoes Aedes aegypti landing on the warm body (Aedes aegypti [1]; 0.4 mg/mL (Table 3)): 93% | Percentage of repellence of mosquitoes Aedes aegypti landing on the warm body (Aedes aegypti [1]; 10 mg/mL (Table 3)): 96%

COc1ccc(C=O)c(OC)c1 [compound 1558, 2,4-dimethoxybenzaldehyde]
pest or weed control at 400 µg/mL (Ixodes ricinus): 16.7% | pest or weed control at 2000 µg/mL (Ixodes ricinus): 38.5% | pest or weed control at 10000 µg/mL (Ixodes ricinus): 91.7% | pest or weed control at 16 µg/mL (Aedes aegypti [1]; [3]): 86% | pest or weed control at 400 µg/mL (Aedes aegypti [1]; [4]): 89% | pest or weed control at 10000 µg/mL (Aedes aegypti [1]; [5]): 86% | pest or weed control at 0.04 % (Aedes aegypti [1]; [6]): > 75% | pest or weed control at 0.0016 % (Aedes aegypti [1]; Aedes aegypti, lowest concentration of 0.0016% (Table 3), read-out: reduce the number of mosquito landings): > 50%

COc1ccc(C(C)=O)c(O)c1 [compound 1559, 2-hydroxy-4-methoxyacetophenone]
Percentage of repellence of ticks Ixodes ricinus on the warm plate (Ixodes ricinus; 0.4 mg/mL (Table 10)): 13.3% | Percentage of repellence of ticks Ixodes ricinus on the warm plate (Ixodes ricinus; 2 mg/mL (Table 10)): 57.1% | Percentage of repellence of ticks Ixodes ricinus on the warm plate (Ixodes ricinus; 10 mg/mL (Table 10)): 91.7% | Percentage of repellence of mosquitoes Aedes aegypti landing on the warm body (Aedes aegypti [1]; 0.016 mg/mL (Table 3)): 90% | Percentage of repellence of mosquitoes Aedes aegypti landing on the warm body (Aedes aegypti [1]; 0.4 mg/mL (Table 3)): 98% | Percentage of repellence of mosquitoes Aedes aegypti landing on the warm body (Aedes aegypti [1]; 10 mg/mL (Table 3)): 98%

COc1cc(C)cc(OC)c1OC [compound 1967, 3,4,5-trimethoxytoluene]
pest or weed control at 3.2 µg/mL (Anopheles gambiae; Anopheles gambiae, 0.0032 mg/mL (Table 5), read-out: Percentage of repellence of mosquitoes Anopheles gambiae landing on the warm body): 0% | pest or weed control at 16 µg/mL (Anopheles gambiae; Anopheles gambiae, 0.016 mg/mL (Table 5), read-out: Percentage of repellence of mosquitoes Anopheles gambiae landing on the warm body): 0% | pest or weed control at 80 µg/mL (Anopheles gambiae; Anopheles gambiae, 0.08 mg/mL (Table 5), read-out: Percentage of repellence of mosquitoes Anopheles gambiae landing on the warm body): 1% | pest or weed control at 178 µg/mL (Anopheles gambiae; Anopheles gambiae, 0.178 mg/mL (Table 4), read-out: Percentage of repellence of mosquitoes Anopheles gambiae landing on the warm body): 65% | pest or weed control at 178 µg/mL (Anopheles gambiae; Anopheles gambiae, 0.178 mg/mL (Table 5), read-out: Percentage of repellence of mosquitoes Anopheles gambiae landing on the warm body): 59% | pest or weed control at 267 µg/mL (Anopheles gambiae; Anopheles gambiae, 0.267 mg/mL (Table 4), read-out: Percentage of repellence of mosquitoes Anopheles gambiae landing on the warm body): 78% | pest or weed control at 267 µg/mL (Anopheles gambiae; Anopheles gambiae, 0.267 mg/mL (Table 5), read-out: Percentage of repellence of mosquitoes Anopheles gambiae landing on the warm body): 82% | pest or weed control at 400 µg/mL (Anopheles gambiae; Anopheles gambiae, 0.4 mg/mL (Table 4), read-out: Percentage of repellence of mosquitoes Anopheles gambiae landing on the warm body): 84% | pest or weed control at 400 µg/mL (Anopheles gambiae; Anopheles gambiae, 0.4 mg/mL (Table 5), read-out: Percentage of repellence of mosquitoes Anopheles gambiae landing on the warm body): 71% | pest or weed control at 2000 µg/mL (Anopheles gambiae; Anopheles gambiae, 2 mg/mL (Table 5), read-out: Percentage of repellence of mosquitoes Anopheles gambiae landing on the warm body): 100% | pest or weed control at 4470 µg/mL (Anopheles gambiae; Anopheles gambiae, 4.47 mg/mL (Table 4), read-out: Percentage of repellence of mosquitoes Anopheles gambiae landing on the warm body): 100% | pest or weed control at 4470 µg/mL (Anopheles gambiae; Anopheles gambiae, 4.47 mg/mL (Table 5), read-out: Percentage of repellence of mosquitoes Anopheles gambiae landing on the warm body): 100% | pest or weed control at 10000 µg/mL (Anopheles gambiae; Anopheles gambiae, 10 mg/mL (Table 4), read-out: Percentage of repellence of mosquitoes Anopheles gambiae landing on the warm body): 100% | pest or weed control at 10000 µg/mL (Anopheles gambiae; Anopheles gambiae, 10 mg/mL (Table 5), read-out: Percentage of repellence of mosquitoes Anopheles gambiae landing on the warm body): 100% | repellence (Anopheles gambiae; concentration ≥0.0178% (Table 5)): > 50% | landing (Anopheles gambiae; concentrations ≥0.2% (Table 5)): no landing at all | percentage of repellence (Anopheles gambiae; lowest concentration tested, 0.0178% (Table 4)): above 60% | repellence (no mosquito landing on the attractive stimulus) (Anopheles gambiae; with at least one of the two concentrations 0.447% & 1% (Table 4)): 100% | mosquitoes landed on the volunteer (Aedes aegypti [2]; in 3 minutes, negative control 60.7±2.5 landings): 22.3±3.2 | Spatial Repellence (Aedes aegypti [2]; large scale assay, 25 m3 chambers, compound released in the air): 47.3 ± 3.8% | Protective efficacy (Aedes aegypti [2]; large scale assay, probing on volunteer forearm, 3 minutes): 63.1 ± 5.5% | mosquito entered the treated chamber (Aedes aegypti [2]; negative control 82.5±3.7%): 43.5±3.2% | pest or weed control at 16 µg/mL (Aedes aegypti [1]; [3]): 0% | pest or weed control at 400 µg/mL (Aedes aegypti [1]; [4]): 12% | pest or weed control at 10000 µg/mL (Aedes aegypti [1]; [5]): 81%

COc1ccc(C=O)c(OC)c1OC [compound 2267, 2,3,4-trimethoxybenzaldehyde]
pest or weed control at 400 µg/mL (Ixodes ricinus): 66.7% | pest or weed control at 2000 µg/mL (Ixodes ricinus): 86.7% | pest or weed control at 10000 µg/mL (Ixodes ricinus): 71.4% | pest or weed control at 16 µg/mL (Aedes aegypti [1]; [3]): 0% | pest or weed control at 400 µg/mL (Aedes aegypti [1]; [4]): 81% | pest or weed control at 10000 µg/mL (Aedes aegypti [1]; [5]): 96% | pest or weed control at 1 % (Aedes aegypti [1]; Aedes aegypti, highest tested concentration, 1% (Table 3), read-out: repellence): > 90% | pest or weed control at 0.04 % (Aedes aegypti [1]; [6]): > 75%
